Source: the NIST ThermoML archive (doi:10.1021/je2010209)
Numbers after ± are expanded uncertainties.

Assay: xn = mol fraction of the nth substance listed
Settings: 101 kPa, Liquid; for speed of sound: Sing-around technique in a fixed-path interferometer; for mass density: Vibrating tube method

COCCOCCO [2-(2-methoxyethoxy)ethanol] + CCCCn1cc[n+](C)c1.F[B-](F)(F)F
Settings	mass density [kg/m3]	speed of sound [m/s]
288.15 K, x2 = 0	1024.6 ± 0.89	1451 ± 5
288.15 K, x2 = 0.0308	1035.12 ± 0.91	1461 ± 5
288.15 K, x2 = 0.1053	1059.04 ± 0.96	1490 ± 5
288.15 K, x2 = 0.2065	1086.98 ± 1	1514 ± 5
288.15 K, x2 = 0.3137	1110.84 ± 1.1	1533 ± 5
288.15 K, x2 = 0.4002	1126.77 ± 1.1	1544 ± 5
288.15 K, x2 = 0.5035	1143.12 ± 1.1	1559 ± 5
288.15 K, x2 = 0.6083	1158.14 ± 1.2	1568 ± 5
288.15 K, x2 = 0.7023	1170.82 ± 1.2	1575 ± 5
288.15 K, x2 = 0.8291	1187.12 ± 1.2	1580 ± 5
288.15 K, x2 = 0.9381	1199.91 ± 1.3	1583 ± 5
293.15 K, x2 = 0	1020.2 ± 0.88	1434 ± 5
293.15 K, x2 = 0.0308	1030.69 ± 0.9	1445 ± 5
293.15 K, x2 = 0.1053	1054.73 ± 0.95	1473 ± 5
293.15 K, x2 = 0.2065	1082.85 ± 1	1499 ± 5
293.15 K, x2 = 0.3137	1106.71 ± 1.1	1517 ± 5
293.15 K, x2 = 0.4002	1122.56 ± 1.1	1531 ± 5
293.15 K, x2 = 0.5035	1138.99 ± 1.1	1546 ± 5
293.15 K, x2 = 0.6083	1154.16 ± 1.2	1555 ± 5
293.15 K, x2 = 0.7023	1167.07 ± 1.2	1563 ± 5
293.15 K, x2 = 0.8291	1183.25 ± 1.2	1572 ± 5
293.15 K, x2 = 0.9381	1196.01 ± 1.3	1574 ± 5
298.15 K, x2 = 0	1015.79 ± 0.87	1416 ± 5
298.15 K, x2 = 0.0308	1026.51 ± 0.89	1428 ± 5
298.15 K, x2 = 0.1053	1050.61 ± 0.94	1457 ± 5
298.15 K, x2 = 0.2065	1078.49 ± 1	1483 ± 5
298.15 K, x2 = 0.3137	1102.51 ± 1.1	1503 ± 5
298.15 K, x2 = 0.4002	1118.58 ± 1.1	1518 ± 5
298.15 K, x2 = 0.5035	1135.22 ± 1.1	1533 ± 5
298.15 K, x2 = 0.6083	1150.52 ± 1.2	1543 ± 5
298.15 K, x2 = 0.7023	1163.46 ± 1.2	1551 ± 5
298.15 K, x2 = 0.8291	1180 ± 1.2	1560 ± 5
298.15 K, x2 = 0.9381	1192.92 ± 1.3	1563 ± 5
303.15 K, x2 = 0	1011.36 ± 0.86	1399 ± 5
303.15 K, x2 = 0.0308	1022.02 ± 0.89	1411 ± 5
303.15 K, x2 = 0.1053	1046.36 ± 0.93	1441 ± 5
303.15 K, x2 = 0.2065	1074.58 ± 0.99	1468 ± 5
303.15 K, x2 = 0.3137	1098.6 ± 1	1489 ± 5
303.15 K, x2 = 0.4002	1114.55 ± 1.1	1504 ± 5
303.15 K, x2 = 0.5035	1131.18 ± 1.1	1519 ± 5
303.15 K, x2 = 0.6083	1146.73 ± 1.1	1530 ± 5
303.15 K, x2 = 0.7023	1160.08 ± 1.2	1539 ± 5
303.15 K, x2 = 0.8291	1176.92 ± 1.2	1546 ± 5
303.15 K, x2 = 0.9381	1189.62 ± 1.2	1552 ± 5
308.15 K, x2 = 0	1006.92 ± 0.85	1382 ± 5
308.15 K, x2 = 0.0308	1017.5 ± 0.88	1395 ± 5
308.15 K, x2 = 0.1053	1042 ± 0.93	1425 ± 5
308.15 K, x2 = 0.2065	1070.56 ± 0.98	1453 ± 5
308.15 K, x2 = 0.3137	1094.68 ± 1	1474 ± 5
308.15 K, x2 = 0.4002	1110.65 ± 1.1	1490 ± 5
308.15 K, x2 = 0.5035	1127.3 ± 1.1	1506 ± 5
308.15 K, x2 = 0.6083	1142.95 ± 1.1	1517 ± 5
308.15 K, x2 = 0.7023	1156.36 ± 1.2	1526 ± 5
308.15 K, x2 = 0.8291	1173.24 ± 1.2	1534 ± 5
308.15 K, x2 = 0.9381	1185.91 ± 1.2	1540 ± 5
313.15 K, x2 = 0	1002.47 ± 0.84	1366 ± 5
313.15 K, x2 = 0.0308	1013.14 ± 0.87	1378 ± 5
313.15 K, x2 = 0.1053	1037.68 ± 0.92	1409 ± 5
313.15 K, x2 = 0.2065	1066.49 ± 0.98	1437 ± 5
313.15 K, x2 = 0.3137	1090.91 ± 1	1460 ± 5
313.15 K, x2 = 0.4002	1107.01 ± 1.1	1477 ± 5
313.15 K, x2 = 0.5035	1123.64 ± 1.1	1493 ± 5
313.15 K, x2 = 0.6083	1139.19 ± 1.1	1505 ± 5
313.15 K, x2 = 0.7023	1152.49 ± 1.2	1514 ± 5
313.15 K, x2 = 0.8291	1169.38 ± 1.2	1523 ± 5
313.15 K, x2 = 0.9381	1182.2 ± 1.2	1529 ± 5
318.15 K, x2 = 0	998.009 ± 0.83	1349 ± 5
318.15 K, x2 = 0.0308	1008.9 ± 0.86	1362 ± 5
318.15 K, x2 = 0.1053	1033.44 ± 0.91	1393 ± 5
318.15 K, x2 = 0.2065	1062 ± 0.97	1422 ± 5
318.15 K, x2 = 0.3137	1086.38 ± 1	1447 ± 5
318.15 K, x2 = 0.4002	1102.75 ± 1.1	1464 ± 5
318.15 K, x2 = 0.5035	1119.79 ± 1.1	1480 ± 5
318.15 K, x2 = 0.6083	1135.51 ± 1.1	1494 ± 5
318.15 K, x2 = 0.7023	1148.84 ± 1.2	1503 ± 5
318.15 K, x2 = 0.8291	1165.68 ± 1.2	1512 ± 5
318.15 K, x2 = 0.9381	1178.57 ± 1.2	1519 ± 5
